Data: patent US20100029761A1, “NOVEL COMPOUNDS, PHARMACEUTICAL COMPOSITIONS CONTAINING SAME, AND METHODS OF USE FOR SAME” (priority 2005, published 2010)
In brackets after ≈: the same amount, converted by molar mass. Like-named read-outs stand apart in the source and are kept apart here.

Columns and labels:
purified human FAS = target: T1, purified human FAS (Homo sapiens, UniProt P49327); test: Measurement of FAS enzymatic activity (malonyl-CoA dependent NADPH oxidation); format: biochemical
T1 construct: Human FAS was purified from cultured ZR-75-1 human breast cancer cells obtained from the American Type Culture Collection; endogenous in cells; host or cells: ZR-75-1 human breast cancer cells (ATCC); PEG precipitations and Mono Q anion exchange
T1 sequence (P49327 whole entry): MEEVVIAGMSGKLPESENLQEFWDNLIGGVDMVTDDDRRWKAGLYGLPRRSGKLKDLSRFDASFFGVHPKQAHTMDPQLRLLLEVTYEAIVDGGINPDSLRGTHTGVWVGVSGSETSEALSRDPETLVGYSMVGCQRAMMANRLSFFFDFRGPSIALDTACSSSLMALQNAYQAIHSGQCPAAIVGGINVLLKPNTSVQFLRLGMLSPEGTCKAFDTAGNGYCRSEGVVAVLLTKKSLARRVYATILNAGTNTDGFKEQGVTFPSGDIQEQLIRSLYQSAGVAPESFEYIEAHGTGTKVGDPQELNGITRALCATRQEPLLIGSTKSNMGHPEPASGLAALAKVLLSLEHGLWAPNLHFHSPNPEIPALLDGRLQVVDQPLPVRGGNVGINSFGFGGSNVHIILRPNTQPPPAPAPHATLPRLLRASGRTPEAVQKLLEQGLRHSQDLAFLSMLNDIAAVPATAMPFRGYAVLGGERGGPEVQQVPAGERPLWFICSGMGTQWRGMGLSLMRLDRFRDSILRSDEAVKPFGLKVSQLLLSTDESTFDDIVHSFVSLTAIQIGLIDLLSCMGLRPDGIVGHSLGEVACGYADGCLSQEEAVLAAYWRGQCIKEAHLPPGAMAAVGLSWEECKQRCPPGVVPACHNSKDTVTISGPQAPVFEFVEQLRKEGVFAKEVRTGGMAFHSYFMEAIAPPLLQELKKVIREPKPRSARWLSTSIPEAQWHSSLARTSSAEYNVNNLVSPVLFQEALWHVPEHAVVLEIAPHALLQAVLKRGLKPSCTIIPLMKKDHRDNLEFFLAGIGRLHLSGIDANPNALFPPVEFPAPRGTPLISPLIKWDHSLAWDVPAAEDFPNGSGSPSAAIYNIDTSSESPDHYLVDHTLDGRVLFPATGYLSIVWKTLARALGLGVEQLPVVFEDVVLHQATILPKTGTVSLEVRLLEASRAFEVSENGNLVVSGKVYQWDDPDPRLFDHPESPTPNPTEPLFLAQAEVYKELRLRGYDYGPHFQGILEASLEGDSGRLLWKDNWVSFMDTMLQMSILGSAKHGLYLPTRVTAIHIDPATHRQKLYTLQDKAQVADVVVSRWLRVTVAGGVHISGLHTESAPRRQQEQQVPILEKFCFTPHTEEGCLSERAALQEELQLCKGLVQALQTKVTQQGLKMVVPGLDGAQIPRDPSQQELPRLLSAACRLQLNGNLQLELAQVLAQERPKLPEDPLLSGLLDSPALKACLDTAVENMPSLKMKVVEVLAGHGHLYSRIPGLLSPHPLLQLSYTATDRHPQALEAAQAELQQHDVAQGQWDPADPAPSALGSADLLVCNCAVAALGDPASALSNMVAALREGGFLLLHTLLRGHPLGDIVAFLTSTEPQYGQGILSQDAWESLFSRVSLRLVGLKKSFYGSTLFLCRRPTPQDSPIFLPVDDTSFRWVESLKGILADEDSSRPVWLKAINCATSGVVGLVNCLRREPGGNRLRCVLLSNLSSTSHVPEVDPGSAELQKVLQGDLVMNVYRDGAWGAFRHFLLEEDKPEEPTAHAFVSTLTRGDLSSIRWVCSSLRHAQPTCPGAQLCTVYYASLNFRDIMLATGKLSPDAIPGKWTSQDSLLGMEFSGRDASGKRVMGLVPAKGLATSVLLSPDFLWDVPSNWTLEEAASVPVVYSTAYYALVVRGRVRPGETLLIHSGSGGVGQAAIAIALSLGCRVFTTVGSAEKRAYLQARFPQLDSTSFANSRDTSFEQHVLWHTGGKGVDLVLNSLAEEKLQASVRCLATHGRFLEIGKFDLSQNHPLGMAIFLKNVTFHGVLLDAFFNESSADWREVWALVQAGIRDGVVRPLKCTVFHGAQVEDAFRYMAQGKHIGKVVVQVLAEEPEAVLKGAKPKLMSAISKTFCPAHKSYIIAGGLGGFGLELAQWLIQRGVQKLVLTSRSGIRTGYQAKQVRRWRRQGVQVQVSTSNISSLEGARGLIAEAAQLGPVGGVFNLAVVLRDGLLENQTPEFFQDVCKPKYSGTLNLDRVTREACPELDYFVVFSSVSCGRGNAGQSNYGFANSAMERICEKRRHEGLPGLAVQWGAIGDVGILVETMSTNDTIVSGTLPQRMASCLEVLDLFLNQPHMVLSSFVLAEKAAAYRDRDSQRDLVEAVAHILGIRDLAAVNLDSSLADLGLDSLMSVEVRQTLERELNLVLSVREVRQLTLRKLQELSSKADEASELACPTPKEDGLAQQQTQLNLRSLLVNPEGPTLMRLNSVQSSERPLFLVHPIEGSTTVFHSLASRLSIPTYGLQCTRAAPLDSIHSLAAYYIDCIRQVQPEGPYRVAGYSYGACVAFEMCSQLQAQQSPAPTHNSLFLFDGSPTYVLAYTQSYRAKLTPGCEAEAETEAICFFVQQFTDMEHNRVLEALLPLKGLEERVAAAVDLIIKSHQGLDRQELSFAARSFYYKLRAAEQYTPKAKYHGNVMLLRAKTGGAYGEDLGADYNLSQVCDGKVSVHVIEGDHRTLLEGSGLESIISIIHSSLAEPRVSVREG
Procedure: Human FAS was purified from cultured ZR-75-1 human breast cancer cells obtained from the American Type Culture Collection. The procedure, adapted from Linn et al., 1981, and Kuhajda et al., 1994, utilizes hypotonic lysis, successive polyethyleneglycol (PEG) precipitations, and anion exchange chromatography. ZR-75-1 cells are cultured at 37° C. with 5% CO2 in RPMI culture medium with 10% fetal bovine serum, penicillin and streptomycin.
Ten T150 flasks of confluent cells are lysed with 1.5 ml lysis buffer (20 mM Tris-HCl, pH 7.5, 1 mM EDTA, 0.1 mM phenylmethanesulfonyl fluoride (PMSF), 0.1% Igepal CA-630) and dounce homogenized on ice for 20 strokes. The lysate is centrifuged in JA-20 rotor (Beckman) at 20,000 rpm for 30 minutes at 4° C. and the supernatant is brought to 42 ml with lysis buffer. A solution of 50% PEG 8000 in lysis buffer is added slowly to the supernatant to a final concentration of 7.5%. After rocking for 60 minutes at 4° C., the solution is centrifuged in JA-20 rotor (Beckman) at 15,000 rpm for 30 minutes at 4° C. Solid PEG 8000 is then added to the supernatant to a final concentration of 15%. After the rocking and centrifugation is repeated as above, the pellet is resuspended overnight at 4° C. in 10 ml of Buffer A (20 mM K2HPO4, pH 7.4). After […] filtration, the protein solution is applied to a Mono Q 5/5 anion exchange column (Pharmacia). The column is washed for 15 minutes with buffer A at 1 ml/minute, and bound material is eluted with a linear 60-ml gradient over 60 minutes to 1 M KCl. FAS (MW˜270 kD) typically elutes at 0.25 M KCl in three 0.5 ml fractions identified using 4-15% SDS-PAGE with Coomassie G250 stain (Bio-Rad). FAS protein concentration is determined using the Coomassie Plus Protein Assay Reagent (Pierce) according to manufacturer's specifications using BSA as a standard. This procedure results in substantially pure preparations of FAS (>95%) as judged by Coomassie-stained gels.
FAS activity is measured by monitoring the malonyl-CoA dependent oxidation of NADPH spectrophotometrically at OD340 in 96-well plates (Dils et al and Arslanian et al, 1975). Each well contains 2 μg purified FAS, 100 mM K2HPO4, pH 6.5, 1 mM dithiothreitol (Sigma), and 187.5 μM β-NADPH (Sigma). Stock solutions of inhibitors are prepared in DMSO at 2, 1, and 0.5 mg/ml resulting in final concentrations of 20, 10, and 5 μg/ml when 1 μl of stock is added per well. For each experiment, cerulenin (Sigma) is run as a positive control along with DMSO controls, inhibitors, and blanks (no FAS enzyme) all in duplicate.
The assay is performed on a Molecular Devices SpectraMax Plus Spectrophotometer. The plate containing FAS, buffers, inhibitors, and controls are placed in the spectrophotometer heated to 37° C. Using the kinetic protocol, the wells are blanked on duplicate wells containing 100 μl of 100 mM K2HPO4, pH 6.5 and the plate is read at OD340 at 10 sec intervals for 5 minutes to measure any malonyl-CoA independent oxidation of NADPH. The plate is removed from the spectrophotometer and malonyl-CoA (67.4 μM, final concentration per well) and […] (61.8 μM, final concentration per well) are added to each well except to the blanks. The plate is read again as above with the kinetic protocol to measure the malonyl-CoA dependent NADPH oxidation. The difference between the Δ OD340 for the malonyl-CoA dependent and non-malonyl-CoA dependent NADPH oxidation is the specific FAS activity. Because of the purity of the FAS preparation, non-malonyl-CoA dependent NADPH oxidation is negligible.
The concentration of compound yielding 50% inhibition of FAS is the IC50. Graphs of Δ OD340 versus time are plotted by the SOFTmax PRO software (Molecular Devices) for each compound concentration. Computation of linear regression, best-fit line, r^2, and 95% confidence intervals are calculated using Prism Version 3.0 (Graph Pad Software).

[1] = test system: fatty acid synthesis pathway activity in MCF-7 human breast cancer cells; test: [14C]acetate incorporation into total lipids; format: cell-based; details: for 14C (IC50): [14C]acetate incorporation into lipids; for IC50: Homo sapiens, MCF7, [14C]acetate incorporation into lipids
Procedure: This assay measures the incorporation of [^14C]acetate into total lipids and is a measure of fatty acid synthesis pathway activity in vitro. It is utilized to measure inhibition of fatty acid synthesis in vitro.
MCF-7 human breast cancer cells cultured as above, are plated at 5×10^4 cells per well in 24-well plates. Following overnight incubation, the compounds to be tested, solubilized in DMSO, are added at 5, 10, and 20 μg/ml in triplicate, with lower concentrations tested if necessary. DMSO is added to triplicate wells for a vehicle control. C75 is run at 5 and 10 μg/ml in triplicate as positive controls. After 4 hours of incubation, 0.25 μCi of [^14C]acetate (10 μl volume) is added to each well.
After 2 hours of additional incubation, medium is aspirated from the wells and 800 μl of chloroform:methanol (2:1) and 700 μl of 4 mM MgCl2 is added to each well. Contents of each well are transferred to 1.5 Eppendorf tubes, and spun at full-speed for 2 minutes in a high-speed Eppendorf Microcentrifuge 5415D. After removal of the aqueous (upper) layer, an additional 700 μl of chloroform:methanol (2:1) and 500 μl of 4 mM MgCl2 are added to each tube and then centrifuged for 1 minutes as above. The aqueous layer is removed with a Pasteur pipette and discarded. An additional 400 μl of chloroform:methanol (2:1) and 200 μl of 4 mM MgCl2 are added to each tube, then centrifuged and aqueous layer is discarded. The lower (organic) phase is transferred into a scintillation vial and dried at 40° C. under N2 gas. Once dried, 3 ml of scintillant (APB #NBC5104) is added and vials are counted for ^14C. The Beckman Scintillation counter calculates the average cpm values for triplicates.
The IC50 for the compounds is defined as the concentration of drug leading to a 50% reduction in [^14C]acetate incorporation into lipids compared to controls. This is determined by plotting the average cpm for each inhibitor concentration tested, performing linear regression and computing the best-fit line, r^2 values, and 95% confidence intervals. The average cpm values are computed by the Beckman scintillation counter (Model LS6500) for each compound concentration. Computation of linear regression, best-fit line, r^2, and 95% confidence intervals are calculated using Prism Version 3.0 (Graph Pad Software).

[2] = marked (SB), abbreviation not defined, read-out: FAS (IC50) (SB) (converted)

SMILES | Solubility remark under FAS (IC50) (purified human FAS) | FAS (IC50) (purified human FAS; purified human FAS, OD340) | 14C (IC50) [1] | IC50 (purified human FAS; [2]) [µM] | IC50 (purified human FAS; purified human FAS, OD340, read-out: FAS (IC50) (converted)) [µM] | IC50 [1] [µg/mL]
CCCCCCCCC1OC(=O)C(OC)=C1C(=O)OCC (stereo not shown) [Compound 4] | Solubility problems | Neg | Neg | – | – | –
CCCCCCCCC1OC(=O)C(OC(=O)OCC)=C1C(=O)OCC (stereo not shown) [Compound 7] | – | – | Neg | 222 | – | –
CCCCCCCCC1OC(=O)C(OCc2ccccc2)=C1C(=O)OCC (stereo not shown) [Compound 5] | Solubility problems | Neg | Neg (stim) | – | – | –
CCCCCCCCC1OC(=O)C(=O)C1C(=O)OCC (stereo not shown) [Compound 1] | – | – | – | – | 65.1 | 40.7 ± 7.1 (≈ 143 µM)
CCCCCCCCC1OC(=O)C(OCC(=O)OCC)=C1C(=O)OCC (stereo not shown) [Compound 3] | – | Neg | – | 121 | – | 30 (≈ 81 µM)
CCCCC1OC(=O)C(O)=C1C(=O)OCC (stereo not shown) [Compound 2] | – | Neg | Neg | 1230 | – | –
C=CCOC1=C(C(=O)OCC)C(CCCCCCCC)OC1=O (stereo not shown) [Compound 6] | Solubility problems | Neg | Neg | – | – | –
